Values of other authors as cited in patent US20120189710A1, “ANTIBACTERIAL COMPOSITIONS” (priority 2009, published 2012).

**Q.** With C=CCSC[C@H](N)C(=O)O [SAC, S-allyl cysteine] as the molecule, how does the water solubility read?
**A.** Its water solubility is “water soluble”.
